Test results: patent US20230381192A1, “METHODS FOR CONTROLLING AND PREDICTING RECOVERY AFTER NMBA ADMINISTRATION” (Cornell University, priority 2020, published 2023)
Where two headings read alike, the source gives them in different places.

Columns and labels:
Healthy volunteers = test: Phase I: NMB measured by mechanomyography (twitch T1, TOFR) in healthy volunteers under sevoflurane/N2O; assay type: in vivo, human; conditions: for mean time to 95% T1 recovery: spontaneous recovery
Text: Twitch Height: A peripheral nerve stimulator that applies supramaximal. stimuli to the ulnar nerve at the wrist via surface electrodes was used for neuromuscular monitoring. Following anesthesia induction, single twitch stimuli (0.10 Hz) may be delivered continuously during a 15- to 20- minute period to establish baseline twitch height. Single twitch may continue during and following NMBA administration.
Train-of-Four twitch stimulation pattern ratio (TOFR): The TOP delivers 4 supramaximal electrical impulses that involve four equally strong twitches of the stimulated muscle. A fade of the twitches appears when the neuromuscular blockade increases. Comparison of the fourth twitch (T4) to the first twitch (T1) provides the TOFR.
(§1) (Abstract available in the final supplement of the Journal of Anesthesia and Analgesia, May 2020 (Volume 30, Issue pages 73-74), which is incorporated herein by reference. Healthy volunteers (n=34) aged 18 to 55 of either gender gave informed consent to an 1RB-approved Phase I protocol, NMB was measured by mechanomyography during sevoflurane (0.5 MAC)/N20 (70%) anesthesia. Each volunteer received a single IV bolus of RP1000,
An ED95 dose of 0.08 mg/kg was established under sevoflurane anesthesia and a dose of 0.14 mg/kg led to 100% twitch suppression in all subjects. At doses below 0,08 mg/kg, (n=18) 100% twitch inhibition occurred in NONE of the volunteers. […] volunteers, however, who were given doses of 0.08, 0.10, or 0.14 mg/kg, developed 100% block: (n=2 of 6 at 0.08, 6 of 6 at 0.10, and 4 of 4 at 0,14 mg/kg).
During spontaneous recovery from 100% block, in all volunteers, TOE stimulation was applied to the ulnar nerve every 20 seconds and the response of the thumb was monitored continuously until T1 of TOE had recovered to 95% of baseline and TOFR had reached 0.90. The total duration of block was calculated from injection to recovery of T1 to 95 percent of baseline and to recovery of TOFR to 0.90. The 5-95% recovery intervals during recovery from 100% block were measured, Following the completion of data acquisition for all dosage groups, a comparison was made by ANOVA of the 5-95% recovery times resulting after doses of 0.08, 0.10 and 0.14 mg/kg. Recovery data in the 12 volunteers who developed 100% block were then combined to show a single composite recovery pattern. ANOVA was again done to compare the recovery data (5-95% intervals) for the composite group to the corresponding intervals for the separate dosage groups of 0.08, 0.10, and 0,14 mg/kg.

[1] = in vivo; cited from earlier work
[2] = preclinical studies; cited from earlier work
Rhesus monkeys = test: Spontaneous recovery from NMB (twitch 5% to 95% of baseline) after bolus or infusion in Rhesus monkeys under isoflurane; assay type: in vivo, Rhesus monkey; conditions: for 5%-95% Interval: mean ± SD
Description: Rhesus monkeys under isoflurane anesthesia were administered a bolus dose of either RP2000 or RP1000 at a dose equal to 1× to 10× the ED95 in Rhesus monkeys of the administered compound (ED95,Rp1000=0.040 mg/kg; ED95,RP2000=0.053 mg/kg). Twitch (0.15 Hz) and TOF (2 Hz×2 seconds) were recorded throughout the 6 -10 hours experiments. Time to spontaneous recovery after bolus administration, characterized by recovery of twitch from 5% to 95% of baseline was measured.
Separately, continuous infusions of 20-180 minutes duration were given (to separate subjects), and after discontinuation of infusion, time to spontaneous recovery of NMB, characterized by recovery of twitch from 5% to 95% of baseline was measured.

[3] = Phase I pharmacokinetics after single IV bolus; assay type: in vivo; conditions: both sexes, human; for AUC(0-t) / clearance / Cmax: plasma, iv, 0.04 mg/kg, single IV bolus 0.04 mg/kg (n = 6)
Description: as §1

[4] = human, Composite of 0.08, 0.10, 0.14 mg/kg groups (n=12)
[5] = human, dose 0.08 mg/kg, recovery from 100% block
[6] = human, dose 0.1 mg/kg, recovery from 100% block
[7] = human, dose 0.14 mg/kg, recovery from 100% block
[8] = human, doses ≥ED95, approximately

COc1ccc(C[C@@H]2c3cc(OC)c(OC)cc3CC[N@@+]2(C)CCCOC(=O)/C=C/C(=O)OCCC[N@+]2(C)CCc3cc(OC)c(OC)cc3[C@H]2Cc2ccc(OC)c(OC)c2)cc1OC.[Cl-].[Cl-] [RP1000]
Time to maximum T1 recovery (Healthy volunteers; human, 0.08 mg/kg): about 50 minutes | mean time to T4:T1>0.9 (Healthy volunteers; human, 0.08 mg/kg): about 50 minutes | volunteers who developed 100% block (Healthy volunteers; human, 0.08 mg/kg): 2 of 6 | Time to maximum T1 recovery (Healthy volunteers; human, 0.10 mg/kg): about 70 minutes | mean time to T4:T1>0.9 (Healthy volunteers; human, 0.10 mg/kg): about 70 minutes | volunteers who developed 100% block (Healthy volunteers; human, 0.10 mg/kg): 6 of 6 | mean time from 5% to 95% T1 recovery (Healthy volunteers; human, 0.1 mg/kg and 0.145 mg/kg doses): 35 to 40 min | Time to maximum T1 recovery (Healthy volunteers; human, 0.14 mg/kg): about 70 minutes | mean time to T4:T1>0.9 (Healthy volunteers; human, 0.14 mg/kg): ~80 min | volunteers who developed 100% block (Healthy volunteers; human, 0.14 mg/kg): 4 of 4 | Recovery Time, Recovery Interval 5%-95% (Healthy volunteers; [4]): 37.4 ± 6.4 min | Recovery Time, Recovery Interval 25%-75% (Healthy volunteers; [4]): 14.9 ± 3.0 min | Recovery Time, Recovery Interval 5%-95% (Healthy volunteers; [5]): 34.8 ± 12.5 min | Recovery Time, Recovery Interval 25%-75% (Healthy volunteers; [5]): 15.7 ± 8.4 min | Recovery Time, Recovery Interval 5%-95% (Healthy volunteers; [6]): 39.4 ± 6.5 min | Recovery Time, Recovery Interval 25%-75% (Healthy volunteers; [6]): 15.1 ± 2.0 min | Recovery Time, Recovery Interval 5%-95% (Healthy volunteers; [7]): 35.6 ± 3.1 min | Recovery Time, Recovery Interval 25%-75% (Healthy volunteers; [7]): 14.2 ± 0.9 min | twitch suppression (Healthy volunteers; human, dose of 0.14 mg/kg, in all subjects): 100% | volunteers in whom 100% twitch inhibition occurred (Healthy volunteers; human, doses below 0.08 mg/kg (n=18)): NONE | volunteers who developed 100% block (Healthy volunteers; human, doses of 0.08, 0.10, or 0.14 mg/kg pooled): 12 of 14 | time to 95% T1 suppression (Healthy volunteers; [8]): 2 to 3 min | time to maximum T1 suppression (Healthy volunteers; [8]): 3 to 5 min | duration of NMB effect (Healthy volunteers; human, injection): intermediate duration | onset of action (Healthy volunteers; human, injection): rapid onset of action | mean time to 95% T1 recovery (Healthy volunteers; human, 0.08 mg/kg): approximately 45 minutes | mean time to 95% T1 recovery (Healthy volunteers; human, 0.10 mg/kg): ~55 min | mean time to 95% T1 recovery (Healthy volunteers; human, 0.14 mg/kg): ~60 min | ED95 dose (Healthy volunteers; human, under sevoflurane anesthesia): 0.08 mg/kg | ED 95 for humans (Healthy volunteers; humans): about 0.077 mg/kg | potential for bronchoconstrictive activity or histamine release [1]: low potential | time to 100% NMB after administration [2]: ≤ 90 s | ED95 in Rhesus monkeys (Rhesus monkeys; Rhesus monkeys, isoflurane anesthesia): 0.040 mg/kg | 5%-95% Interval (Rhesus monkeys; after continuous infusion of 20-180 minutes): 13.1 ± 3.7 min | 5%-95% Interval (Rhesus monkeys; bolus dose 0.05 mg/kg): 15.3 ± 7.5 min | 5%-95% Interval (Rhesus monkeys; bolus dose 0.10 mg/kg): 14.3 ± 6.5 min | 5%-95% Interval (Rhesus monkeys; bolus dose 0.20 mg/kg): 13.3 ± 4.4 min | 5%-95% Interval (Rhesus monkeys; bolus dose 0.40 mg/kg): 15.5 ± 5.1 min | half-life ([3]; in vivo, intravenous, all dosage groups, read-out: half-life of elimination): 25 to 26 min | AUC(0-t) ([3]; read-out: AUClast, Geometric Mean (converted)): 132 ng·h/mL | AUC(0-t) ([3]; read-out: AUClast, Mean (converted)): 6.35 ng·h/mL | clearance ([3]; read-out: CL (clearance), Geometric Mean): 387 mL/min | clearance ([3]; read-out: CL (clearance), Mean (SD)): 400 mL/min | Cmax ([3]; read-out: Cmax, Geometric Mean): 2360 ng/mL | Cmax ([3]; read-out: Cmax, Mean): 2540 ng/mL
